According to patent US12077503B2, “Substituted cyclic amides and their use as herbicides” (FMC CORPORATION, priority 2015, dated 2024):

Assays:
Type in all cases: in vivo
[1] = test system: ducksalad (Heteranthera limosa); test: Test B flooded paddy test; conditions: Heteranthera limosa, 360 h, Flood, 250 g ai/ha; visually evaluated after 13 to 15 d; read-out: Plant response rating, Ducksalad (0 to 100 scale where 0 is no effect and 100 is complete control)
Method in brief: (§1)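 Flooding to 3 cm over soil accompanied treatment, which consisted of adding compound to the standing water around 2-leaf plants; depth was then maintained. Visual assessment versus controls followed at 13 to 15 d (scale 0–100, 0 meaning no effect).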

[2] = test system: sedge, umbrella (small-flower umbrella sedge, Cyperus difformis); test: Test B flooded paddy test; conditions: Cyperus difformis, 360 h, Flood, 250 g ai/ha; visually evaluated after 13 to 15 d; read-out: Plant response rating, Sedge, Umbrella (0 to 100 scale where 0 is no effect and 100 is complete control)
Method in brief: as §1

[3] = test system: barnyardgrass (Echinochloa crus-galli); test: Test B flooded paddy test; conditions: Echinochloa crus-galli, 360 h, Flood, 250 g ai/ha; visually evaluated after 13 to 15 d; read-out: Plant response rating, Barnyardgrass (0 to 100 scale where 0 is no effect and 100 is complete control)
Method in brief: as §1

rice (Oryra sativa) = test: Test B flooded paddy test; conditions: Oryza sativa, 360 h, Flood, 250 g ai/ha; visually evaluated after 13 to 15 d; read-out: Plant response rating, Rice (0 to 100 scale where 0 is no effect and 100 is complete control)
Method in brief: as §1

[4] = test system: giant foxtail (Setaria faberii); test: Test A preemergence; conditions: Setaria faberi, pre-emergence, 240 h, Preemergence
Method in brief: (§2)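 Compounds were formulated in a non-phytotoxic solvent mixture with surfactant and applied as a preemergence directed soil spray after seeding, or sprayed postemergence over plants 2 to 10 cm tall at the one- to two-leaf stage. Evaluation after about 10 d compared treated with untreated controls, using a scale from 0 (no effect) to 100 (complete control).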

Kochia (Kochia scoparia) [5] = test: Test A preemergence; conditions: Bassia scoparia, pre-emergence, 240 h, Preemergence
Method in brief: as §2

[6] = test system: ryegrass, Italian (Italian ryegrass, Lolium multiflorum); test: Test A preemergence; conditions: Lolium multiflorum, pre-emergence, 240 h, Preemergence
Method in brief: as §2

[7] = test system: pigweed (Amaranthus retroflexus); test: Test A preemergence; conditions: Amaranthus retroflexus, pre-emergence, 240 h, Preemergence
[8] = test system: barnyardgrass (Echinochloa crus-galli); test: Test A preemergence; conditions: Echinochloa crus-galli, pre-emergence, 240 h, Preemergence
Method in brief: as §2

[9] = test system: ragweed (common ragweed, Ambrosia elatior); test: Test A preemergence; conditions: Ambrosia artemisiifolia, pre-emergence, 240 h, Preemergence
Method in brief: as §2

[10] = test system: Galium (catchweed bedstraw, Galium aparine); test: Test A postemergence; conditions: Galium, post-emergence, 240 h, Postemergence, read-out: Galium plant response rating (0 to 100 scale)
Method in brief: as §2

[11] = test system: blackgrass (Alopecurus myosuroides); test: Test A postemergence; conditions: Alopecurus myosuroides, post-emergence, 240 h, Postemergence, read-out: Blackgrass plant response rating (0 to 100 scale)
Method in brief: as §2

corn (Zea mays) = test: Test A postemergence; conditions: Zea mays, post-emergence, 240 h, Postemergence, read-out: Corn plant response rating (0 to 100 scale)
Method in brief: as §2

[12] = test system: giant foxtail (Setaria faberii); test: Test A postemergence; conditions: Setaria faberi, post-emergence, 240 h, Postemergence, read-out: Foxtail, Giant plant response rating (0 to 100 scale)
Method in brief: as §2

[13] = test system: wheat (Triticum aestivum); test: Test A postemergence; conditions: Triticum aestivum, post-emergence, 240 h, Postemergence, read-out: Wheat plant response rating (0 to 100 scale)
Method in brief: as §2

Kochia (Kochia scoparia) [14] = test: Test A postemergence; conditions: Bassia scoparia, post-emergence, 240 h, Postemergence, read-out: Kochia plant response rating (0 to 100 scale)
Method in brief: as §2

[15] = test system: ryegrass, Italian (Italian ryegrass, Lolium multiflorum); test: Test A postemergence; conditions: Lolium multiflorum, post-emergence, 240 h, Postemergence, read-out: Ryegrass, Italian plant response rating (0 to 100 scale)
Method in brief: as §2

[16] = test system: pigweed (Amaranthus retroflexus); test: Test A postemergence; conditions: Amaranthus retroflexus, post-emergence, 240 h, Postemergence, read-out: Pigweed plant response rating (0 to 100 scale)
Method in brief: as §2

[17] = test system: barnyardgrass (Echinochloa crus-galli); test: Test A postemergence; conditions: Echinochloa crus-galli, post-emergence, 240 h, Postemergence
Method in brief: as §2

[18] = test system: ragweed (common ragweed, Ambrosia elatior); test: Test A postemergence; conditions: Ambrosia artemisiifolia, post-emergence, 240 h, Postemergence, read-out: Ragweed plant response rating (0 to 100 scale)
Method in brief: as §2

[19] = 125 g ai/ha, visual rating about 10 d after treatment
[20] = 31 g ai/ha, 0 is no effect, 100 is complete control

O=C1NC[C@H](c2cc(Br)cc(Br)c2)[C@H]1C(=O)Nc1cccc(F)c1F [Compound 1366]
pest or weed control at 250 g/ha [1]: 80%
pest or weed control at 250 g/ha [2]: 0%
pest or weed control at 250 g/ha [3]: 40%
pest or weed control at 250 g/ha (rice (Oryra sativa)): 0%
pest or weed control at 31 g/ha ([4]; 31 g ai/ha, 0 to 100 scale where 0 is no effect and 100 is complete control, read-out: Foxtail, Giant plant response rating): 50%
pest or weed control at 125 g/ha ([4]; 125 g ai/ha, 0 to 100 scale (0 no effect, 100 complete control), read-out: Plant response rating, Foxtail, Giant): 90%
pest or weed control at 31 g/ha (Kochia (Kochia scoparia) [5]; 31 g ai/ha, 0 to 100 scale where 0 is no effect and 100 is complete control, read-out: Kochia plant response rating): 0%
pest or weed control at 125 g/ha (Kochia (Kochia scoparia) [5]; 125 g ai/ha, 0 to 100 scale (0 no effect, 100 complete control), read-out: Plant response rating, Kochia): 0%
pest or weed control at 31 g/ha ([6]; 31 g ai/ha, 0 to 100 scale where 0 is no effect and 100 is complete control, read-out: Ryegrass, Italian plant response rating): 0%
pest or weed control at 125 g/ha ([6]; 125 g ai/ha, 0 to 100 scale (0 no effect, 100 complete control), read-out: Plant response rating, Ryegrass, Italian): 10%
pest or weed control at 31 g/ha ([7]; 31 g ai/ha, 0 to 100 scale where 0 is no effect and 100 is complete control, read-out: Pigweed plant response rating): 0%
pest or weed control at 125 g/ha ([7]; 125 g ai/ha, 0 to 100 scale (0 no effect, 100 complete control), read-out: Plant response rating, Pigweed): 0%
pest or weed control at 31 g/ha ([8]; 31 g ai/ha, 0 to 100 scale where 0 is no effect and 100 is complete control, read-out: Barnyardgrass plant response rating): 60%
pest or weed control at 125 g/ha ([8]; 125 g ai/ha, 0 to 100 scale (0 no effect, 100 complete control), read-out: Plant response rating, Barnyardgrass): 70%
pest or weed control at 31 g/ha ([9]; 31 g ai/ha, 0 to 100 scale where 0 is no effect and 100 is complete control, read-out: Ragweed plant response rating): 0%
pest or weed control at 125 g/ha ([9]; 125 g ai/ha, 0 to 100 scale (0 no effect, 100 complete control), read-out: Plant response rating, Ragweed): 0%
pest or weed control at 125 g/ha [10, 19]: 70%
pest or weed control at 31 g/ha [10, 20]: 0%
pest or weed control at 125 g/ha [11, 19]: 0%
pest or weed control at 31 g/ha [11, 20]: 0%
plant injury at 125 g/ha (corn (Zea mays); [19]): 0%
plant injury at 31 g/ha (corn (Zea mays); [20]): 0%
pest or weed control at 125 g/ha [12, 19]: 70%
pest or weed control at 31 g/ha [12, 20]: 30%
plant injury at 125 g/ha [13, 19]: 0%
plant injury at 31 g/ha [13, 20]: 0%
pest or weed control at 125 g/ha (Kochia (Kochia scoparia) [14]; [19]): 0%
pest or weed control at 31 g/ha (Kochia (Kochia scoparia) [14]; [20]): 0%
pest or weed control at 125 g/ha [15, 19]: 0%
pest or weed control at 31 g/ha [15, 20]: 0%
pest or weed control at 125 g/ha [16, 19]: 80%
pest or weed control at 31 g/ha [16, 20]: 0%
pest or weed control at 125 g/ha ([17]; 125 g ai/ha, visual rating about 10 d after treatment, read-out: Barnyardgrass plant response rating (0 to 100 scale, 0 no effect, 100 complete control)): 70%
pest or weed control at 31 g/ha ([17]; 31 g ai/ha, 0 is no effect, 100 is complete control, read-out: Barnyardgrass plant response rating (0 to 100 scale)): 20%
pest or weed control at 125 g/ha [18, 19]: 0%
pest or weed control at 31 g/ha [18, 20]: 0%
